Test results published in PubChem BioAssay AID2060896 (Molecular Pharmacology Branch, DTP, NCI, 2025).

System: 941728-121-R-J1-PDC complex spheroid viability
Experiment: Anticancer human tumor 941728-121-R-J1-PDC patient-derived lung adenocarcinoma cell line growth inhibition [RAS]
Settings: for IC50: curve of first compound; for viability, T/C: stronger effect = lower value
Method in brief: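 Multi-cell-type spheroids: tumor cells plus HUVEC endothelial cells and mesenchymal stem cells. RAS-pathway inhibitors were combined with targeted agents, each dosed in half-log steps down from clinical Cmax, or from 10 microM when Cmax was unknown.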

[1] = second compound 0.00316 µM, first compound 0.00316 µM
[2] = second compound 0.00316 µM, first compound 0.01 µM
[3] = second compound 0.00316 µM, first compound 0.0316 µM
[4] = second compound 0.00316 µM, first compound 0.1 µM
[5] = second compound 0.00316 µM, first compound 0.316 µM
[6] = second compound 0.00316 µM, first compound 1 µM
[7] = second compound 0.01 µM, first compound 0.00316 µM
[8] = second compound 0.01 µM, first compound 0.01 µM
[9] = second compound 0.01 µM, first compound 0.0316 µM
[10] = second compound 0.01 µM, first compound 0.1 µM
[11] = second compound 0.01 µM, first compound 0.316 µM
[12] = second compound 0.01 µM, first compound 1 µM
[13] = second compound 0.0316 µM, first compound 0.00316 µM
[14] = second compound 0.0316 µM, first compound 0.01 µM
[15] = second compound 0.0316 µM, first compound 0.0316 µM
[16] = second compound 0.0316 µM, first compound 0.1 µM
[17] = second compound 0.0316 µM, first compound 0.316 µM
[18] = second compound 0.0316 µM, first compound 1 µM
[19] = second compound 0.1 µM, first compound 0.00316 µM
[20] = second compound 0.1 µM, first compound 0.01 µM
[21] = second compound 0.1 µM, first compound 0.0316 µM
[22] = second compound 0.1 µM, first compound 0.1 µM
[23] = second compound 0.1 µM, first compound 0.316 µM
[24] = second compound 0.1 µM, first compound 1 µM
[25] = second compound 0.316 µM, first compound 0.00316 µM
[26] = second compound 0.316 µM, first compound 0.01 µM
[27] = second compound 0.316 µM, first compound 0.0316 µM
[28] = second compound 0.316 µM, first compound 0.1 µM
[29] = second compound 0.316 µM, first compound 0.316 µM
[30] = second compound 0.316 µM, first compound 1 µM
[31] = second compound 1 µM, first compound 0.00316 µM
[32] = second compound 1 µM, first compound 0.01 µM
[33] = second compound 1 µM, first compound 0.0316 µM
[34] = second compound 1 µM, first compound 0.1 µM
[35] = second compound 1 µM, first compound 0.316 µM
[36] = second compound 1 µM, first compound 1 µM
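Further: spheroids exposed to compounds for 7 days before readout.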
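Wherever viability, T/C is given: 100% = DMSO vehicle control viability.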

## CC1(C)CCC(Nc2ncc(C(F)(F)F)c(-c3c[nH]c4c(P(C)(C)=O)c(C#N)ccc34)n2)CN1 (stereo unspecified) + C#Cc1c(F)ccc2cc(O)cc(-c3ncc4c(N5CC6CCC(C5)N6)nc(OCC56CCCN5CC(F)C6)nc4c3F)c12
Second compound 0.0316 µM
  IC50: > 300 nM
Second compound 0.1 µM
  IC50: > 300 nM
Second compound 0.316 µM
  IC50: < 0.949 nM
Second compound 1 µM
  IC50: < 0.949 nM
Second compound 3.16 µM
  IC50: < 0.949 nM
Second compound 10 µM
  IC50: < 0.949 nM
Second compound 0.0316 µM, first compound 0.000949 µM
  viability, T/C: 71.4%
Second compound 0.0316 µM, first compound 0.003 µM
  viability, T/C: 58.2%
Second compound 0.0316 µM, first compound 0.00949 µM
  viability, T/C: 53.7%
Second compound 0.0316 µM, first compound 0.03 µM
  viability, T/C: 48%
Second compound 0.0316 µM, first compound 0.0949 µM
  viability, T/C: 49.9%
Second compound 0.0316 µM, first compound 0.3 µM
  viability, T/C: 54.6%
Second compound 0.1 µM, first compound 0.000949 µM
  viability, T/C: 68.5%
Second compound 0.1 µM, first compound 0.003 µM
  viability, T/C: 53.6%
Second compound 0.1 µM, first compound 0.00949 µM
  viability, T/C: 55.5%
Second compound 0.1 µM, first compound 0.03 µM
  viability, T/C: 52.7%
Second compound 0.1 µM, first compound 0.0949 µM
  viability, T/C: 50.5%
Second compound 0.1 µM, first compound 0.3 µM
  viability, T/C: 49.4%
Second compound 0.316 µM, first compound 0.000949 µM
  viability, T/C: 51.5%
Second compound 0.316 µM, first compound 0.003 µM
  viability, T/C: 46.7%
Second compound 0.316 µM, first compound 0.00949 µM
  viability, T/C: 38.5%
Second compound 0.316 µM, first compound 0.03 µM
  viability, T/C: 45.4%
Second compound 0.316 µM, first compound 0.0949 µM
  viability, T/C: 44.4%
Second compound 0.316 µM, first compound 0.3 µM
  viability, T/C: 49.6%
Second compound 1 µM, first compound 0.000949 µM
  viability, T/C: 33.8%
Second compound 1 µM, first compound 0.003 µM
  viability, T/C: 40.2%
Second compound 1 µM, first compound 0.00949 µM
  viability, T/C: 35.6%
Second compound 1 µM, first compound 0.03 µM
  viability, T/C: 36.3%
Second compound 1 µM, first compound 0.0949 µM
  viability, T/C: 38.6%
Second compound 1 µM, first compound 0.3 µM
  viability, T/C: 38.9%
Second compound 3.16 µM, first compound 0.000949 µM
  viability, T/C: 30.9%
Second compound 3.16 µM, first compound 0.003 µM
  viability, T/C: 30.8%
Second compound 3.16 µM, first compound 0.00949 µM
  viability, T/C: 33.6%
Second compound 3.16 µM, first compound 0.03 µM
  viability, T/C: 35.1%
Second compound 3.16 µM, first compound 0.0949 µM
  viability, T/C: 34.4%
Second compound 3.16 µM, first compound 0.3 µM
  viability, T/C: 34.5%
Second compound 10 µM, first compound 0.000949 µM
  viability, T/C: 23%
Second compound 10 µM, first compound 0.003 µM
  viability, T/C: 30.1%
Second compound 10 µM, first compound 0.00949 µM
  viability, T/C: 24.3%
Second compound 10 µM, first compound 0.03 µM
  viability, T/C: 24.9%
Second compound 10 µM, first compound 0.0949 µM
  viability, T/C: 27.5%
Second compound 10 µM, first compound 0.3 µM
  viability, T/C: 26%

## C=CC(=O)Nc1cc(Nc2nccc(-c3cn(C)c4ccccc34)n2)c(OC)cc1N(C)CCN(C)C + C=CC(=O)N1CCN(c2nc(OCC3CCCN3C)nc3c(F)c(-c4nc(N)cc(C)c4C(F)(F)F)c(Cl)cc23)C(C)C1
Second compound 0.00316 µM
  IC50: < 3.16 nM
Second compound 0.01 µM
  IC50: < 3.16 nM
Second compound 0.0316 µM
  IC50: < 3.16 nM
Second compound 0.1 µM
  IC50: < 3.16 nM
Second compound 0.316 µM
  IC50: < 3.16 nM
Second compound 1 µM
  IC50: < 3.16 nM
[1]
  viability, T/C: 17.3%
[2]
  viability, T/C: 25.6%
[3]
  viability, T/C: 17.1%
[4]
  viability, T/C: 21.1%
[5]
  viability, T/C: 17.6%
[6]
  viability, T/C: 16.7%
[7]
  viability, T/C: 20.4%
[8]
  viability, T/C: 18.3%
[9]
  viability, T/C: 19.5%
[10]
  viability, T/C: 18.2%
[11]
  viability, T/C: 14.4%
[12]
  viability, T/C: 17.3%
[13]
  viability, T/C: 18.4%
[14]
  viability, T/C: 16.9%
[15]
  viability, T/C: 17.2%
[16]
  viability, T/C: 17.9%
[17]
  viability, T/C: 17.5%
[18]
  viability, T/C: 15.8%
[19]
  viability, T/C: 21.1%
[20]
  viability, T/C: 19.7%
[21]
  viability, T/C: 15.5%
[22]
  viability, T/C: 15.8%
[23]
  viability, T/C: 18.7%
[24]
  viability, T/C: 16.4%
[25]
  viability, T/C: 19.8%
[26]
  viability, T/C: 18.1%
[27]
  viability, T/C: 15.7%
[28]
  viability, T/C: 17.1%
[29]
  viability, T/C: 19.7%
[30]
  viability, T/C: 15.6%
[31]
  viability, T/C: 20.6%
[32]
  viability, T/C: 15.7%
[33]
  viability, T/C: 18.2%
[34]
  viability, T/C: 17.3%
[35]
  viability, T/C: 18.9%
[36]
  viability, T/C: 16.2%

## O=C(c1ccc(F)c(F)c1Nc1ccc(I)cc1F)N1CC(O)([C@@H]2CCCCN2)C1 + C=CC(=O)N1CCN(c2nc(OCC3CCCN3C)nc3c(F)c(-c4nc(N)cc(C)c4C(F)(F)F)c(Cl)cc23)C(C)C1
Second compound 0.00316 µM
  IC50: < 3.16 nM
Second compound 0.01 µM
  IC50: < 3.16 nM
Second compound 0.0316 µM
  IC50: < 3.16 nM
Second compound 0.1 µM
  IC50: < 3.16 nM
Second compound 0.316 µM
  IC50: < 3.16 nM
Second compound 1 µM
  IC50: < 3.16 nM
[1]
  viability, T/C: 20.4%
[2]
  viability, T/C: 19.1%
[3]
  viability, T/C: 15.5%
[4]
  viability, T/C: 14.5%
[5]
  viability, T/C: 12.7%
[6]
  viability, T/C: 11.8%
[7]
  viability, T/C: 18.9%
[8]
  viability, T/C: 14.6%
[9]
  viability, T/C: 16.7%
[10]
  viability, T/C: 12.9%
[11]
  viability, T/C: 12.5%
[12]
  viability, T/C: 11.6%
[13]
  viability, T/C: 16.1%
[14]
  viability, T/C: 13.8%
[15]
  viability, T/C: 13.3%
[16]
  viability, T/C: 13.9%
[17]
  viability, T/C: 13%
[18]
  viability, T/C: 12.1%
[19]
  viability, T/C: 22%
[20]
  viability, T/C: 13.5%
[21]
  viability, T/C: 14.5%
[22]
  viability, T/C: 13.8%
[23]
  viability, T/C: 12.8%
[24]
  viability, T/C: 10.9%
[25]
  viability, T/C: 15%
[26]
  viability, T/C: 13.7%
[27]
  viability, T/C: 13.9%
[28]
  viability, T/C: 13.1%
[29]
  viability, T/C: 12.4%
[30]
  viability, T/C: 13.5%
[31]
  viability, T/C: 16.4%
[32]
  viability, T/C: 17%
[33]
  viability, T/C: 15.3%
[34]
  viability, T/C: 13.2%
[35]
  viability, T/C: 13.2%
[36]
  viability, T/C: 11.1%
